Results reported in US20150297637A1, “ACTIVATED CARBON COMPRISING AN ADSORBED IODIDE SALT IN A METHOD FOR TREATING CHRONIC BRONCHITIS” (PHARMALUNDENSIS AB, priority 2012, published 2015).
Entries after “also recorded” stand apart in the source; their conditions may differ.

System: cough and sputum production in a patient with chronic bronchitis
Experiment: Use of KI-impregnated charcoal for treating a patient with chronic bronchitis
Type: in vivo, human
Conditions: one patient; capsule with 10 mg KI per day for one month
Source text: A person has for several years experienced increasing problems with cough and mucous production for long periods. They were diagnosed as suffering from chronic bronchitis. They were prescribed standard treatment including corticosteroids, anti-cholinergics, beta2-stimulants and mucolytics such as acetylcysteine.
Since the chronic bronchitis caused considerable inconvenience, they examined alternative ways to reduce the symptoms.
To clarify if the improvement of the chronic bronchitis by KI-impregnated activated charcoal was caused by iodide, […] then took a capsule with 10 mg (which amount is considerably higher than the amount of iodide in the KI-impregnated activated charcoal, 300 mg×1.62%=4.9 mg) KI per day for one month.
Finally, they once again took 300 mg activated charcoal impregnated with 1.6% KI in a 00 vegetable capsule for one month.

[I-].[K+] [KI, Potassium iodide]
Cough and sputum production: did not reduce the cough or sputum production at all; also recorded: no improvement of cough or sputum production
